# Paper PMC5515969, “Effects of 31 FDA approved small-molecule kinase inhibitors on isolated rat liver mitochondria” (Archives of Toxicology, 2016)
# Like-named read-outs stand apart in the source and are kept apart here.
# Columns and labels:
# RCC IV = RCC IV activity in submitochondrial particles; assay type: biochemical, rat; design: key to RCC IV at 50XCmax / RCC IV at 100XCmax: activity relative to DMSO-treated controls (control set as 1 = 100%); details: 50XCmax; relative to DMSO treated samples; in %
# Outline: (§1)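 First, submitochondrial particles (1 mg/ml) are incubated with inhibitor for 15 min. Next, complex activities are followed spectrophotometrically, with RCC I taken as the difference between buffers lacking and containing rotenone. Finally, activities are expressed relative to DMSO controls set at 1.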
# RCC V = RCC V activity in submitochondrial particles; assay type: biochemical, rat; details: relative to DMSO treated samples; on RCC V at 5XCmax: key: 0 indicates that the drug had no effects (negative)
# Outline: as §1
# [1] = test system: isolated rat liver mitochondria; assay: Mitochondrial swelling (absorbance at 535 nm); assay type: biochemical; details: difference in signal between KI and DMSO treated samples at the end of experiments; on Swelling 5XCmax: key: 0 indicates that the drug had no effects (negative)
# RCC I = RCC I activity in submitochondrial particles; assay type: biochemical, rat; design: key to RCC I at 10XCmax / RCC I at 100XCmax / RCC I at 50XCmax / RCC I at 30XCmax / RCC I at 20XCmax: activity relative to DMSO-treated controls (control set as 1 = 100%); details: 10XCmax; relative to DMSO treated samples
# Outline: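 Activity relative to DMSO (set as 1) after 15-min exposure of submitochondrial particles (1 mg/ml) to compound. RCC I is defined as rotenone-sensitive activity and RCC II is followed at 600 nm over 6 min.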
# [2] = test system: isolated rat liver mitochondria; assay: Mitochondrial oxygen consumption (glutamate/malate or succinate driven, state 4 and state 3); assay type: biochemical; details: DMSO treated samples set as 1; on State 3 respiration driven by succinate at 10XCmax: key: 0 indicates that the drug had no effects (negative); on State 3 respiration driven by succinate at 1XCmax: key: 0 indicates that the drug had no effects (negative)
# Outline: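 Rat liver mitochondria (1 mg/ml protein) exposed 5 min to kinase inhibitors in 0.1% DMSO, then O2 consumption measured by Clark-type electrode with glutamate/malate or succinate (state 4), ADP added after 3 min (state 3). Rates normalized to 0.1% DMSO controls set to 1.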
# [3] = test system: isolated rat liver mitochondria; assay: Mitochondrial ROS production (CM-H2DCFDA); details: DMSO treated samples set as 1
# RCC II = target: T1, RCC II (Rattus norvegicus, UniProt P21913+Q641Z9+Q6PCT8+Q920L2); assay: RCC II activity in submitochondrial particles; assay type: biochemical; design: key: activity relative to DMSO-treated controls (control set as 1 = 100%); details: relative to DMSO treated samples
# T1 construct: Submitochondrial particles were prepared by subjecting the intact mitochondria to three successive freeze–thaw cycles; from tissue; host or cells: rat liver mitochondria, used as submitochondrial particles
# T1 sequence (Q920L2 35-656): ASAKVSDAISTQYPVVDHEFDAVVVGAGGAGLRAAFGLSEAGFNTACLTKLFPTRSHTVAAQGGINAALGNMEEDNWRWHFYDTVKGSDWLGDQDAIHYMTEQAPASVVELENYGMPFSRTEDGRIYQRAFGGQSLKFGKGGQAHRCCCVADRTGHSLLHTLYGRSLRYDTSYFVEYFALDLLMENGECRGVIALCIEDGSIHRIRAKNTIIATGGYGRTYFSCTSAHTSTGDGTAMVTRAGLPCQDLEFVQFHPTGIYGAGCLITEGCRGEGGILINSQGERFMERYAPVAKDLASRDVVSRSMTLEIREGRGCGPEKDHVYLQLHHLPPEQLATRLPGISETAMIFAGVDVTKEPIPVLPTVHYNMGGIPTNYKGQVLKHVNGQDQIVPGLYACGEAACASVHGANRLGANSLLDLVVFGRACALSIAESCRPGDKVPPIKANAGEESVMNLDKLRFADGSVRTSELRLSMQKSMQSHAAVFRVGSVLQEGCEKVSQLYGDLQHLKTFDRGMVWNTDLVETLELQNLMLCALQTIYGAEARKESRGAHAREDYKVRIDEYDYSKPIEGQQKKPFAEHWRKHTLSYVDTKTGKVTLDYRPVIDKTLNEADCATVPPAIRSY
# T1 sequence (P21913 31-282): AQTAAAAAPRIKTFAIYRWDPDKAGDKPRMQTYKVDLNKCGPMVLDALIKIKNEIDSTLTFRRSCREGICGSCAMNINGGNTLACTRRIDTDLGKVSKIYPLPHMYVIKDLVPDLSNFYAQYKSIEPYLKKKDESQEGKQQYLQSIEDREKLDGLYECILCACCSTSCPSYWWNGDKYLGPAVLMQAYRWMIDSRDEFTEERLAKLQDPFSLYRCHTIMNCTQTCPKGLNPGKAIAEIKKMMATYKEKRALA
# T1 sequence (Q641Z9 1-169): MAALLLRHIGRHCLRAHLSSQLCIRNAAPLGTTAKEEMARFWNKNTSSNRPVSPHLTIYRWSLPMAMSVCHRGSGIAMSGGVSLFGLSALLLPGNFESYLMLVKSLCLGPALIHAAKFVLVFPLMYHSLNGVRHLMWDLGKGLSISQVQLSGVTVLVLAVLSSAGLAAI
# T1 sequence (Q6PCT8 57-159): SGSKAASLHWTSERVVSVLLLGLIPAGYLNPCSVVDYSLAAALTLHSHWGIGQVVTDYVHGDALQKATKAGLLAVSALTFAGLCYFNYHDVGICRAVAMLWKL
# Outline: as §1
# [4] = cited from earlier work
# [5] = test system: isolated rat liver mitochondria; assay: Mitochondrial inner membrane potential (MMP), Rhodamine 123; assay type: biochemical; details: difference in signal between KI and DMSO treated samples at the end of experiments
# From the text: Fig. 3 KI effects on mitochondrial inner membrane potential (MMP). […] In a, c, data are means and standard derivations from three separate experiments. *p < 0.05 as compared to DMSO-treated samples at the end of experiments. In b, data are means of two independent experiments
# RCC III = RCC III activity in submitochondrial particles; assay type: biochemical, rat; design: key to RCC III at 100XCmax: activity relative to DMSO-treated controls (control set as 1 = 100%); details: 100XCmax; relative to DMSO treated samples
# Outline: as §1
compound,measurement,setting,value
CNC(=O)c1ccccc1Sc1ccc2c(/C=C/c3ccccn3)n[nH]c2c1 [Axitinib],RCC IV at 50XCmax,RCC IV,0
same,RCC V at 5XCmax,RCC V; 5XCmax,0
same,RCC V at 50XCmax,RCC V; 50XCmax,0
same,Swelling 1XCmax,[1]; 1XCmax,0
same,Swelling 2.5XCmax,[1]; 2.5XCmax,0
same,Swelling 5XCmax,[1]; 5XCmax,0
same,Swelling 10XCmax,[1]; 10XCmax,0
same,Swelling 20XCmax,[1]; 20XCmax,0
same,Swelling 30XCmax,[1]; 30XCmax,0
same,Swelling 50XCmax,[1]; 50XCmax,0
same,Swelling 100XCmax,[1]; 100XCmax,0
same,RCC I at 10XCmax,RCC I,0
same,State 3 respiration driven by glutamate/malate at 1XCmax,[2]; 1XCmax,0
same,State 3 respiration driven by succinate at 1XCmax,[2]; 1XCmax,0
same,State 4 respiration driven by glutamate/malate at 1XCmax,[2]; 1XCmax,0
same,State 4 respiration driven by succinate at 1XCmax,[2]; 1XCmax,0
same,State 3 respiration driven by glutamate/malate at 2.5XCmax,[2]; 2.5XCmax,0
same,State 3 respiration driven by succinate at 2.5XCmax,[2]; 2.5XCmax,0
same,State 4 respiration driven by glutamate/malate at 2.5XCmax,[2]; 2.5XCmax,0
same,State 4 respiration driven by succinate at 2.5XCmax,[2]; 2.5XCmax,0
same,State 3 respiration driven by glutamate/malate at 5XCmax,[2]; 5XCmax,0
same,State 3 respiration driven by succinate at 5XCmax,[2]; 5XCmax,0
same,State 4 respiration driven by glutamate/malate at 5XCmax,[2]; 5XCmax,0
same,State 4 respiration driven by succinate at 5XCmax,[2]; 5XCmax,0
same,State 3 respiration driven by glutamate/malate at 10XCmax,[2]; 10XCmax,0
same,State 3 respiration driven by succinate at 10XCmax,[2]; 10XCmax,0
same,State 4 respiration driven by glutamate/malate at 10XCmax,[2]; 10XCmax,0
same,State 4 respiration driven by succinate at 10XCmax,[2]; 10XCmax,0
same,State 3 respiration driven by glutamate/malate at 20XCmax,[2]; 20XCmax,0
same,State 3 respiration driven by succinate at 20XCmax,[2]; 20XCmax,0
same,State 4 respiration driven by glutamate/malate at 20XCmax,[2]; 20XCmax,0
same,State 4 respiration driven by succinate at 20XCmax,[2]; 20XCmax,0
same,State 3 respiration driven by glutamate/malate at 30XCmax,[2]; 30XCmax,0
same,State 3 respiration driven by succinate at 30XCmax,[2]; 30XCmax,0
same,State 4 respiration driven by glutamate/malate at 30XCmax,[2]; 30XCmax,0
same,State 4 respiration driven by succinate at 30XCmax,[2]; 30XCmax,0
same,State 3 respiration driven by glutamate/malate at 50XCmax,[2]; 50XCmax,0
same,State 3 respiration driven by succinate at 50XCmax,[2]; 50XCmax,0
same,State 4 respiration driven by glutamate/malate at 50XCmax,[2]; 50XCmax,0
same,State 4 respiration driven by succinate at 50XCmax,[2]; 50XCmax,0
same,State 3 respiration driven by glutamate/malate at 100XCmax,[2]; 100XCmax,0
same,State 3 respiration driven by succinate at 100XCmax,[2]; 100XCmax,0
same,State 4 respiration driven by glutamate/malate at 100XCmax,[2]; 100XCmax,0
same,State 4 respiration driven by succinate at 100XCmax,[2]; 100XCmax,0
same,ROS measured by CM-H2DCFDA at 1XCmax,[3]; 1XCmax,0
same,ROS measured by CM-H2DCFDA at 2.5XCmax,[3]; 2.5XCmax,0
same,ROS measured by CM-H2DCFDA at 5XCmax,[3]; 5XCmax,0
same,ROS measured by CM-H2DCFDA at 10XCmax,[3]; 10XCmax,0
same,ROS measured by CM-H2DCFDA at 20XCmax,[3]; 20XCmax,0
same,ROS measured by CM-H2DCFDA at 30XCmax,[3]; 30XCmax,0
same,ROS measured by CM-H2DCFDA at 50XCmax,[3]; 50XCmax,0
same,ROS measured by CM-H2DCFDA at 100XCmax,[3]; 100XCmax,0
same,RCC II at 1.0XCmax,RCC II; 1.0XCmax,0
same,RCC II at 2.5XCmax,RCC II; 2.5XCmax,0
same,RCC II at 5XCmax,RCC II; 5XCmax,0
same,RCC II at 10XCmax,RCC II; 10XCmax,0
same,RCC II at 20XCmax,RCC II; 20XCmax,0
same,RCC II at 30XCmax,RCC II; 30XCmax,0
same,RCC II at 50XCmax,RCC II; 50XCmax,0
same,RCC II at 100XCmax,RCC II; 100XCmax,0
same,DILI potential (based on labeling),"[4]; 1 = DILI positive, 0 = negative, ref product labeling",1
same,Labeling for DILI,"[4]; BBW: black box warning, W&P: Warnings and Precautions, ref product labeling",W&P: ALT↑
same,labeling for DILI,"[4]; W&P warnings and precautions, BBW black box warnings, ref FDA product labeling",W&P: ALT↑/monitoring
same,DILI potential (based on labeling),[4]; ref FDA product labeling,1
same,MMP measured by Rhodamine 123 at 1XCmax,[5]; 1XCmax,0
same,MMP measured by Rhodamine 123 at 2.5XCmax,[5]; 2.5XCmax,0
same,MMP measured by Rhodamine 123 at 5XCmax,[5]; 5XCmax,0
same,MMP measured by Rhodamine 123 at 10XCmax,[5]; 10XCmax,0
same,MMP measured by Rhodamine 123 at 20XCmax,[5]; 20XCmax,0
same,MMP measured by Rhodamine 123 at 30XCmax,[5]; 30XCmax,0
same,MMP measured by Rhodamine 123 at 50XCmax,[5]; 50XCmax,0
same,MMP measured by Rhodamine 123 at 100XCmax,[5]; 100XCmax,0
same,RCC III at 100XCmax,RCC III,0
